Data: patent US10478455B2, “Therapeutic use of tetrathiomolybdate” (UCL BUSINESS LTD, priority 2010, dated 2019)

Assays:
Wilson's disease = details: cited from earlier work
Male Wistar rats [1] = experiment: Study 2: core temperature in anaesthetised rats; assay type: in vivo, rat; details: anaesthetised rats, 0.2, 2 and 20 mg/kg every 20 minutes; measured 20 minutes after the last dose, vs saline
Description: Animals were anaesthetised and instrumented as above. Under continuous anaesthesia, TTM was administered every 20 minutes at increasing doses (0.2, 2 and 20 mg/kg). Core temperature was measured at the beginning of the experiment (i.e. before TTM administration) and 20 minutes after the last dose of the drug (20 mg/kg).

endotoxaemic animals = experiment: Study 3: core temperature during endotoxaemia (lipopolysaccharide, Klebsiella pneumoniae); assay type: in vivo, rat
Description: FIG. 3: Protocol for endotoxaemia experiments. ETX is endotoxin, TTM is tetrathiomolybdate. Fluids: a 50:50 mix of colloid and crystalloid plus glucose. TTM was diluted in normal saline and administered as a 4 ml/kg bolus. Animals received a venous line for drug administration under anaesthesia. Endotoxaemia (which typically causes an increase in core temperature) was induced by intravenous administration of lipopolysaccharide (20 mg/kg, Klebsiella pneumoniae). TTM or vehicle was administered 1 h following the onset of endotoxaemia (FIG. 3; protocol).

[2] = test system: rat model of haemorrhage/reperfusion injury; experiment: Study 6: rat model of haemorrhage/reperfusion injury; assay type: in vivo
Description: This study investigated effects of TTM in a rat model of haemorrhage/reperfusion injury. Male Wistar rats were anaesthetized for insertion of carotid arterial and jugular venous lines for blood removal and fluid/drug administration, respectively. After 30 min stabilization, 50% estimated circulating blood volume was removed from the arterial line over 15 min. Animals were monitored for a further 90 min prior to resuscitation, then randomized to receive either TTM or placebo (normal saline). TTM (10 mg/kg) was administered as an i.v. bolus (2 ml/kg). This was immediately followed by administration of shed blood over 15 min. In TTM-treated animals, the shed blood was supplemented with a further 2.5 mg/kg TTM; total dose 12.5 mg/kg. Placebo treated animals received equivalent volumes of fluid and administration of shed blood. Following resuscitation, both groups of animals received 10 ml/kg/h n-saline and were monitored up to 6 h post-resuscitation. […] Thus, TTM administration improves outcome following severe haemorrhage/reperfusion injury. This beneficial effect is potentially mediated by modulation of metabolism.

Male Wistar rats [3] = experiment: Study 1: oxygen consumption and carbon dioxide production in awake rats in a metabolic cart; assay type: in vivo, rat
Description: Male Wistar rats (300 g) were anaesthetised and instrumented with a venous line for drug administration. The animals were placed into a metabolic cart and allowed to recover from anaesthesia. After 2 h, TTM was administered i.v. hourly at increasing doses (2, 5, 10 and 20 mg/kg). Oxygen consumption and carbon dioxide production were continually monitored for the duration of the experiment. TTM induced a clear drop in oxygen consumption and carbon dioxide production at 10 and 20 mg/kg (FIG. 1), compared to time-matched control animals (sham) receiving only vehicle (saline).

Soleus muscle fibres = experiment: Study 5: ex-vivo inhibition of oxygen consumption in permeabilized soleus muscle fibres (Clark electrode); details: TTM 0.5-2 mM, saponin-permeabilized rat soleus muscle fibres
Description: This study investivated ex-vivo Inhibition of oxygen consumption by TTM. Soleus muscle was removed from the hind limbs of male Wistar rats and preserved on ice in a physiological buffer solution. Muscle fibres were isolated with forceps and permeabilized with saponin. Muscle fibres were placed in a closed chamber containing a physiological solution and substrates for oxidative metabolism. Oxygen concentrations within the chamber were measured using a Clark electrode. The fall in oxygen concentration over time (gradient) reflects oxygen consumption by the tissue. Either vehicle or TTM (0.5-2 mM) was added to the chamber and oxygen consumption assessed. […] This further highlights the ability of TTM to decrease metabolism.

[4] = Study 4: plasma sulphide after i.v. TTM (monobromobimane-based HPLC assay); assay type: in vivo, rat
Description: This study investigated sulphide release from tetrathiomolybdate (TTM). Male Wistar rats were anaesthetized allowing insertion of carotid arterial and jugular venous lines for blood sampling and drug administration, respectively. Plasma sulphide levels (measured using a monobromobimane-based HPLC assay) were determined up to 2 h following bolus i.v. administration of TTM (10 mg/kg) or for 3 h after the onset of two continuous i.v. infusions (10 and 20 mg/kg/h).

[5] = awake rats, TTM i.v. hourly at increasing doses, effect at 10 and 20 mg/kg vs sham (saline)

Compound	neurological function in patients who present with neurologic disease (Wilson's disease)	core temperature (Male Wistar rats [1])	core temperature at highest dose (endotoxaemic animals; TTM 20 mg/kg, 1 h after onset of endotoxaemia)	hyperthermic response to endotoxin (core temperature) (endotoxaemic animals; TTM given 1 h after onset of endotoxaemia (LPS 20 mg/kg i.v.))	6 h survival post-resuscitation ([2]; TTM 10 mg/kg i.v. bolus plus 2.5 mg/kg in shed blood (total 12.5 mg/kg) vs placebo)	core temperature ([2]; TTM total dose 12.5 mg/kg, haemorrhage/reperfusion)	conscious level (Male Wistar rats [3]; awake rats during intravenous infusion of TTM)	carbon dioxide production (Male Wistar rats [3]; [5])	oxygen consumption (Male Wistar rats [3]; [5])	oxygen consumption ex vivo (Soleus muscle fibres)	plasma sulphide half-life ([4]; bolus i.v. 10 mg/kg) [min]	plasma sulphide levels ([4]; bolus i.v. 10 mg/kg, up to 2 h)	time to steady state of plasma sulphide ([4]; continuous i.v. infusion 10 and 20 mg/kg/h) [h]	plasma sulphide levels ([4]; continuous i.v. infusion 10 and 20 mg/kg/h, 3 h)
ammonium TTM	preserves neurological function													
[SH-].[SH-].[S]=[Mo]=[S] [TTM, Tetrathiomolybdate]		decrease in core temperature	induced significant hypothermia	ablated the hyperthermic response to endotoxin	significant improvement in 6 h survival	Core temperature fell	conscious level was maintained	clear drop	clear drop	dose-dependent inhibition of oxygen consumption	17	high levels of sulphide in plasma	2	dose-dependent increase in plasma sulphide levels
